# According to patent US10688103B2, “Methods for treating hypersomnia” (BALANCE THERAPEUTICS, INC., priority 2014, dated 2020):
# Columns and labels:
# [1] = system: patient diagnosed with primary hypersomnia; experiment: Functional Outcomes of Sleep Questionnaire (FOSQ) in hypersomnia patients; format: in vivo, human; set-up: key to FOSQ General Productivity Score / FOSQ Social Outcome Score / FOSQ Activity Level Score / FOSQ Vigilance Score / FOSQ Intimate Relationships and Sexual Activity Score: subscale score ~1-4; higher = improvement; key to Functional Outcomes of Sleep Questionnaire (FOSQ) Total Score: total score ~5-20; higher = improvement
# Experimental: In some embodiments, the subject having hypersomnia is assessed using the Functional Outcomes of Sleep Questionnaire (FOSQ). The FOSQ can, e.g., be administered to the subject by asking the subject to rate the impact of a sleep disorder on a scale on activities within certain categories. In some embodiments, an FOSQ total score is determined. In some embodiments, the FOSQ total score is determined from one or more subscale scores (e.g., 1, 2, 3, 4, 5, 6, 7, 8, or more subscale scores). In some embodiments, the FOSQ subscale scores can include, e.g., a General Productivity Score, a Social Outcome Score, an Activity Level Score, a Vigilance Score, or an Intimate Relationship and Sexual Activity Score. A skilled artisan will recognize that higher FOSQ total or subscale scores indicate an improvement in the subject's hypersomnia. In some embodiments, FOSQ total scores can range from about 5 to 20. In some embodiments, FOSQ subscale scores can range from about 1 to 4.
# (§1) The patient was selected for PTZ treatments based on a clinical diagnosis of primary hypersomnia and the presence of an elevated level of an endogenous positive GABAA receptor allosteric modulator in the cerebrospinal fluid (CSF) of the subject relative to the CSF of a subject not having hypersomnia. The patient's sleepiness was scored according to the Epworth Sleepiness Scale (ESS), the Functional Outcomes of Sleep Questionnaire (FOSQ) Total Score, and the Multidimensional Fatigue Inventory (MFI). Additional clinical parameters recorded during the course of PTZ treatment included the Clinical Global Impression of Severity (CGI-S), the Clinical Global Impression of Change (CGI-C), the Beck Depression Inventory (BDI-II) Total Score and the patient's reported feelings of fogginess.
# (§2) PTZ was orally administered to the patient twice daily at doses of 100 mg in liquid form in a TANG™ brand juice.
# (§3) The patients were selected for PTZ treatments and evaluated as described in Example 2. PTZ was orally administered in liquid form in a TANG™ brand juice.
# (§4) The patients were first evaluated while receiving flumazenil (Patient 1) or clarithromycin (Patient 2). […] A second evaluation of the two patients was performed at the end of the wash-out period. PTZ was then administered to Patient 1 for two weeks. During the first week, PTZ was administered to Patient 1 twice daily at doses of 100 mg, and during the second week PTZ was administered to Patient 1 at doses of 200 mg. PTZ was administered to Patient 2 for one week twice daily at doses of 100 mg. The patients were evaluated at the end of the first week (Patients 1 and 2) and at the end of the second week (Patient 1).
# [2] = system: patient diagnosed with primary hypersomnia; experiment: Epworth Sleepiness Scale (ESS) in hypersomnia patients; format: in vivo, human
# Description: In some embodiments, total scores in the ESS range from 0 to 24. A skilled artisan will recognize that in the ESS scores at the lower end (towards 0) of the scale indicate an improvement in a subject's hypersomnia. In some embodiments, scores of 10 and above indicate significant hypersomnia symptoms in a subject. In some embodiments, changes of 2-3 points in the ESS indicate clinically meaningful improvements in the subject's hypersomnia.
# as §1, §2, §3, §4
# [3] = system: patient diagnosed with primary hypersomnia; experiment: Multidimensional Fatigue Inventory (MFI) in hypersomnia patients; format: in vivo, human; set-up: key: MFI subscale score; lower scores indicate improvement
# Experimental: In some embodiments, the subject having hypersomnia is assessed using the Multidimensional Fatigue Inventory (MFI). The MFI is typically a 20-item scale designed to evaluate five dimensions of fatigue. In some embodiments, a total MFI score is calculated. In some embodiments, the MFI can include one or more scales (e.g., 1, 2, 3, 4, 5, 6, 7, 8, or more scales). In some embodiments, the MFI scales can include, e.g., a General Fatigue Scale, a Physical Activity Scale, a Reduced Activity Scale, a Reduced Motivation Scale, or a Mental Fatigue Scale. Generally, in MFI lower scores indicate improvements in the subject's […].
# as §1, §2, §3, §4
# [4] = system: patient diagnosed with primary hypersomnia; experiment: Beck Depression Inventory (BDI-II) in hypersomnia patients; format: in vivo, human
# Experimental: In some embodiments, the subject having hypersomnia is assessed using the Beck Depression Inventory (current version, published in 1996, is the BDI-II). In some embodiments, a BDI-II total score is determined. In some embodiments, a BDI-II total score of 0-13 indicates minimal depression; a score of 14-19 indicates mild depression; a score of 20-28 indicates moderate depression; and a score of 29-63 indicates severe depression.
# as §1, §2, §3, §4
# [5] = system: patient diagnosed with primary hypersomnia; experiment: Clinical Global Impression of Severity (CGI-S) in hypersomnia patients; format: in vivo, human
# Experimental: In some embodiments, the subject having hypersomnia is assessed using the Clinical Global Impression of Severity (CGI-S).
# as §1, §2, §3, §4
# [6] = system: patient diagnosed with primary hypersomnia; experiment: Clinical Global Impression of Change (CGI-C) in hypersomnia patients; format: in vivo, human; conditions: oral
# Experimental: In some embodiments, the subject having hypersomnia is assessed using the Clinical Global Impression of Change (CGI-C).
# as §1, §2, §3, §4
# [7] = system: human patients diagnosed with primary hypersomnia; experiment: Overall comparison of treatments of hypersomnia in human patients; format: in vivo; conditions: Patients 1 and 2 diagnosed with primary hypersomnia
# Experimental: This example describes the treatment of hypersomnia by administering PTZ to two human patients having hypersomnia who were treated with flumazenil (Patient 1) or clarithromycin (Patient 2) prior to the administration of PTZ.
# as §3, §4
# [8] = system: patient diagnosed with primary hypersomnia; experiment: Self-reported fogginess score in hypersomnia patients; format: in vivo, human; conditions: oral, average of daily scores over one week
# Experimental: In some embodiments, the subject having hypersomnia is assessed using a self-reported fogginess score. It is believed that the fogginess score can be used to evaluate a subject's clarity of thinking, which can reflect the subject's cognitive state. In some embodiments, the subject is asked how foggy the subject feels, e.g., since waking up in the morning or since midday. Scoring in a self-reported fogginess score can, e.g., be scored on a scale from 0 to 3.
# as §1, §2, §3, §4
# [9] = Patient 2, before PTZ treatment, on clarithromycin
# [10] = Patient 1, before PTZ treatment, on flumazenil
# [11] = Patient 1 (patient of Example 2), after 1 week on PTZ 100 mg twice daily, oral
# [12] = Patient 1, after 2 weeks on PTZ (200 mg twice daily in 2nd week), oral
# [13] = Patient 2, after 1 week on PTZ 100 mg twice daily, oral
# [14] = Patient of Example 2, after one week of PTZ treatment vs before treatment
# [15] = Patient 1 (patient of Example 2), after 1 week on PTZ 100 mg twice daily
# [16] = Patient 1, after 2 weeks on PTZ (200 mg twice daily in 2nd week)
# [17] = Patient 2, after 1 week on PTZ 100 mg twice daily
structure (smiles),measurement,setting,value
"CC[C@H]1OC(=O)[C@H](C)[C@@H](O[C@H]2C[C@@](C)(OC)[C@@H](O)[C@H](C)O2)[C@H](C)[C@@H](O[C@@H]2O[C@H](C)C[C@H](N(C)C)[C@H]2O)[C@](C)(OC)C[C@@H](C)C(=O)[C@H](C)[C@@H](O)[C@]1(C)O [Clarithromycin, clarithromycin]",FOSQ Activity Level Score,[1]; [9],2.3
same,FOSQ General Productivity Score,[1]; [9],3.4
same,FOSQ Intimate Relationships and Sexual Activity Score,[1]; [9],4.0
same,FOSQ Social Outcome Score,[1]; [9],3.0
same,FOSQ Vigilance Score,[1]; [9],2.1
same,Functional Outcomes of Sleep Questionnaire (FOSQ) Total Score,[1]; [9],15
same,Epworth Sleepiness Scale (ESS) Total Score,[2]; [9],8
same,Multidimensional Fatigue Inventory (MFI) General Fatigue Scale,[3]; [9],17
same,Multidimensional Fatigue Inventory (MFI) Mental Fatigue Scale,[3]; [9],9
same,Multidimensional Fatigue Inventory (MFI) Physical Fatigue Scale,[3]; [9],13
same,Multidimensional Fatigue Inventory (MFI) Reduced Activity Scale,[3]; [9],9
same,Multidimensional Fatigue Inventory (MFI) Reduced Motivation Scale,[3]; [9],13
same,Beck Depression Inventory (BDI-II) Total Score,[4]; [9],0
same,Clinical Global Impression of Severity (CGI-S),[5]; [9],4
"CCOC(=O)c1ncn2c1CN(C)C(=O)c1cc(F)ccc1-2 [Flumazenil, flumazenil]",FOSQ Activity Level Score,[1]; [10],1.4
same,FOSQ General Productivity Score,[1]; [10],2.4
same,FOSQ Intimate Relationships and Sexual Activity Score,[1]; [10],1.0
same,FOSQ Social Outcome Score,[1]; [10],3.0
same,FOSQ Vigilance Score,[1]; [10],2.3
same,Functional Outcomes of Sleep Questionnaire (FOSQ) Total Score,[1]; [10],10
same,Epworth Sleepiness Scale (ESS) Total Score,[2]; [10],12
same,Multidimensional Fatigue Inventory (MFI) General Fatigue Scale,[3]; [10],19
same,Multidimensional Fatigue Inventory (MFI) Mental Fatigue Scale,[3]; [10],16
same,Multidimensional Fatigue Inventory (MFI) Physical Fatigue Scale,[3]; [10],19
same,Multidimensional Fatigue Inventory (MFI) Reduced Activity Scale,[3]; [10],19
same,Multidimensional Fatigue Inventory (MFI) Reduced Motivation Scale,[3]; [10],12
same,Beck Depression Inventory (BDI-II) Total Score,[4]; [10],16
same,Clinical Global Impression of Severity (CGI-S),[5]; [10],6
"C1CCc2nnnn2CC1 [PTZ, pentylenetetrazol]",FOSQ Activity Level Score,[1]; [11],2.9
same,FOSQ General Productivity Score,[1]; [11],3.3
same,FOSQ Intimate Relationships and Sexual Activity Score,[1]; [11],2.0
same,FOSQ Social Outcome Score,[1]; [11],3.0
same,FOSQ Vigilance Score,[1]; [11],3.1
same,Functional Outcomes of Sleep Questionnaire (FOSQ) Total Score,[1]; [11],14.5
same,FOSQ Activity Level Score,[1]; [12],2.9
same,FOSQ General Productivity Score,[1]; [12],3.7
same,FOSQ Intimate Relationships and Sexual Activity Score,[1]; [12],3.0
same,FOSQ Social Outcome Score,[1]; [12],3.5
same,FOSQ Vigilance Score,[1]; [12],3.7
same,Functional Outcomes of Sleep Questionnaire (FOSQ) Total Score,[1]; [12],17.0
same,FOSQ Activity Level Score,[1]; [13],3.4
same,FOSQ General Productivity Score,[1]; [13],3.4
same,FOSQ Intimate Relationships and Sexual Activity Score,[1]; [13],4.0
same,FOSQ Social Outcome Score,[1]; [13],3.0
same,FOSQ Vigilance Score,[1]; [13],2.9
same,Functional Outcomes of Sleep Questionnaire (FOSQ) Total Score,[1]; [13],16.5
same,FOSQ Total Score increase,[1]; [14],8 points
same,Clinical Global Impression of Change (CGI-C),[6]; [15],3
same,Clinical Global Impression of Change (CGI-C),[6]; [16],2
same,Clinical Global Impression of Change (CGI-C),[6]; [17],2
same,Epworth Sleepiness Scale (ESS) Total Score,[2]; [11],13
same,Epworth Sleepiness Scale (ESS) Total Score,[2]; [12],9
same,Epworth Sleepiness Scale (ESS) Total Score,[2]; [13],8
same,ESS Total Score decrease,[2]; [14],6 points
same,Multidimensional Fatigue Inventory (MFI) General Fatigue Scale,[3]; [11],18
same,Multidimensional Fatigue Inventory (MFI) Mental Fatigue Scale,[3]; [11],7
same,Multidimensional Fatigue Inventory (MFI) Physical Fatigue Scale,[3]; [11],14
same,Multidimensional Fatigue Inventory (MFI) Reduced Activity Scale,[3]; [11],16
same,Multidimensional Fatigue Inventory (MFI) Reduced Motivation Scale,[3]; [11],9
same,Multidimensional Fatigue Inventory (MFI) General Fatigue Scale,[3]; [12],15
same,Multidimensional Fatigue Inventory (MFI) Mental Fatigue Scale,[3]; [12],8
same,Multidimensional Fatigue Inventory (MFI) Physical Fatigue Scale,[3]; [12],14
same,Multidimensional Fatigue Inventory (MFI) Reduced Activity Scale,[3]; [12],16
same,Multidimensional Fatigue Inventory (MFI) Reduced Motivation Scale,[3]; [12],11
same,Multidimensional Fatigue Inventory (MFI) General Fatigue Scale,[3]; [13],13
same,Multidimensional Fatigue Inventory (MFI) Mental Fatigue Scale,[3]; [13],6
same,Multidimensional Fatigue Inventory (MFI) Physical Fatigue Scale,[3]; [13],7
same,Multidimensional Fatigue Inventory (MFI) Reduced Activity Scale,[3]; [13],6
same,Multidimensional Fatigue Inventory (MFI) Reduced Motivation Scale,[3]; [13],7
same,Efficacy in the treatment of hypersomnia relative to flumazenil and clarithromycin,[7],superior efficacy
same,Beck Depression Inventory (BDI-II) Total Score,[4]; [11],8
same,Beck Depression Inventory (BDI-II) Total Score,[4]; [12],5
same,Beck Depression Inventory (BDI-II) Total Score,[4]; [13],0
same,Clinical Global Impression of Severity (CGI-S),[5]; [11],5
same,Clinical Global Impression of Severity (CGI-S),[5]; [12],4
same,Clinical Global Impression of Severity (CGI-S),[5]; [13],3
same,How foggy have you felt since midday?,[8]; [15],0.1
same,How foggy have you felt since waking up this morning?,[8]; [15],1.1
same,How foggy have you felt since midday?,[8]; [16],0.7
same,How foggy have you felt since waking up this morning?,[8]; [16],1.0
same,How foggy have you felt since midday?,[8]; [17],1.2
same,How foggy have you felt since waking up this morning?,[8]; [17],2.1
